The nature of series [1]: Mouse liver microsome stability. The note with it: CD-1, mouse, microsomes. As to the method: Human liver microsomes (HLMs, 20 mg/mL) and CD-1 mouse liver microsomes (MLMs, 20 mg/mL) were purchased from Xenotech. NADPH was purchased from Sigma-Aldrich and prepared in 10 mM stock solutions of distilled H2O (Invitrogen UltraPure). […] Test compounds and positive controls were initially dissolved in MeOH to make 10 mM stock solutions. Sample solutions were then further diluted in 70/30 MeOH/H2O to 500 μM. Next, the reactions were prepared by mixing human or mouse liver microsomes (55 μL) with potassium phosphate buffer (100 mM, 928 μL) in 1.5 mL Eppendorf tubes. The test compounds (6.6 μL of 500 μM solution) were subsequently added to the suspensions, and the reaction mixtures were incubated at 37 °C for 5 min. Afterward, the liver microsome reactions were initiated with 110 μL of 10 mM NADPH and further incubated at 37 °C for the designated time course of the study. […] Each test compound was run in tandem with positive and negative control experiments for quality assurance. Positive control reactions were conducted at a final volume of 550 μL for a single run of each time point.
For both LM and plasma stability assays, each data point was analyzed in duplicate using in-between blank washes to avoid carry over and to equilibrate the column for the subsequent runs. Averages of these duplicate for individual compounds at each time point were then normalized to the data at 0 min, representing 100% test compound remaining or 0% metabolism. Half-lives (t1/2) were calculated by plotting ln of % test compound remaining versus time and performing linear regression to determine slope.
Metabolic Stability Assays
Liver Microsome Stability
Liver Microsome Stability Assay Setup Example
Quenching Mixture: 100 µL MeOH with ISTD (2 µM d5-7-ethoxycoumarin).
Final Volume After Quenching: 200 µL (100 µL from reaction mixture + 100 µL quencher
solution; ISTD final concentration of 1.0 µM).
In general terms: Liver microsomes are vesicles of endoplasmic reticulum, rich in cytochrome P450 enzymes.

Another series in a line: Mouse plasma stability. The note with it: for mouse plasma t1/2: 3 μM, 37 °C, 240 min course; for remaining at 4 h, 3 μM / half-life at 3 μM: male, BALB/C, mouse, plasma; for half-life at 3 μM: read-out: in vitro mouse plasma stability t1/2. Format: in vitro ADME. As to the method: Human plasma (lithium heparin (LiHep) mixed, gender pooled, 0.2 μm filtered) and mouse plasma (BALB/C, LiHep mixed, male pooled, 0.2 μm filtered) were purchased from BioIVT. Procaine (Sigma-Aldrich) served as a positive control for both human and mouse plasma experiments. […] Next, the human or mouse plasma (994 μL) was aliquoted into 1.5 mL Eppendorf tubes with duplicates (reactions A and B) being prepared for each compound. The plasma was then incubated at 37 °C for 10 min. […] This procedure provided duplicate experiments with a final volume of 1000 μL (<0.2% organic solvent content) and a final test compound concentration of 3 μM. Aliquots (100 μL) were removed from each reaction mixture at 0, 30, 60, 120, and 240 min time intervals and quenched with 150 μL of cold ISTD solution (2 μM 7-ethoxy-d5-coumarin in MeOH). […] The positive control reaction was conducted at a final volume of 1000 μL for a single run of each time point. Finally, the negative control experiment was conducted with test compounds in Dulbecco’s phosphate buffered saline without calcium and magnesium (DPBS, Fisher Scientific, 143 μL) and analyzed at the 240 min time point.
Plasma Stability Assay Setup Example
Test Compound: 994 µL Human or Mouse Plasma + 6.0 µL TC (500 µM, Vial A).
994 µL Human or Mouse Plasma + 6.0 µL TC (500 µM, Vial B).
Positive Control: 994 µL Human or Mouse Plasma + 6.0 µL Procaine (500 µM).
Negative Control: 142 µL DPBS (1X, pH 7.1-7.3) + 0.9 µL TC (500 µM).
Quenching Mixture: 150 µL MeOH with ISTD (2 µM d5-7-ethoxycoumarin).
Final Volume After Quenching: 250 µL (100 µL from reaction mixture and 150 µL quencher
solution; ISTD final concentration of 1.2 µM). […]

The nature of series [2]: HepaRG cellular metabolic stability. The note with it: human, other cell line; for hepatocyte CLint at 20 μM: HepaRG Clint,u, calculated from cellular t1/2; for half-life at 20 μM: HepaRG t1/2, after 3 h loading at 20 μM, 37 °C.
Description: Naturally, due the metabolic complexity of HepaRG cells, we specifically analyzed prodrug cellular uptake and stability, as represented by Cmax and intrinsic clearance (Clint,u) accordingly (Figure 7 and Table 9).
The HepaRG cell line (HPRGC10, Thermo Fisher Scientific) was used to evaluate the cellular permeability and metabolic stability for select final compounds in vitro. The cells were initially thawed with working media composed of HepaRG Thaw, Plate, & General Purpose Medium Supplement (HPRG670), Williams Medium E (100 mL), and GlutaMax (1 mL), all purchased from Thermo Fisher Scientific. […] After the thawing medium was aspirated from each well, the cells were cultured for an additional 6 days with working media consisting of HepaRG Maintenance/Metabolism Medium Supplement (HPRG720), Williams Medium E (500 mL), and GlutaMax (1 mL), all purchased from Thermo Fisher Scientific. Upon completing the 7-day culture period, HepaRG cells were plated in enough wells to allow for duplicate analysis of prodrugs in two independent cellular uptake or metabolic stability experiments. All studied compounds were formulated with human serum albumin (HSA, 5:1 compound to HSA molar ratio) and subsequently diluted to a 20 μM final concentration with assay medium composed of serum-free INVITROGRO HI Medium and TORPEDO Antibiotic Mix purchased from BioIVT. For cellular uptake determinations, the maintenance/metabolism medium was first aspirated from each well, and then the plated cells were spiked with 1.0 mL of test compound stock solution. Subsequently, the plate was incubated at 37 °C under 5% CO2 environment over the desired time course (seven data points/compound). Blank wells not treated with prodrug were included in assay runs as controls and initial time points (0 min). At each time point, the test compound solution was removed from the appropriate wells, and the plated cells were washed with 1.0 mL of DPBS twice. The HepaRG cells were then extracted with 500 μL of cold ISTD solution (1 μM 7-ethoxy-d5-coumarin in 70/30 MeOH/H2O), and the quenched aliquots were centrifuged at 15,000 g for 10 min at 4 °C. […] After obtaining prodrug Cmax and Tmax values from the cellular uptake assay, HepaRG metabolic stability was then assessed. Following the initial 7-day culture procedure, the maintenance/metabolism medium was aspirated from each well, and the plated cells were spiked with 1.0 mL of test compound stock solution. […] The test compound solution was then removed from each well and replaced with untreated dilution medium (i.e., serum-free INVITROGRO HI Medium and TORPEDO Antibiotic Mix), initializing the stability determination. The HepaRG plate was once more incubated at 37 °C under 5% CO2 atmosphere over the desired time course (nine data points/compound), and sample preparation and analysis were handled in identical fashion to cellular uptake experiments.
Where [3] appears, read: relative percent remaining at 240 min.

Usually share remaining stands for the share of the starting amount still present when the sample was taken. As usually defined, the hepatocyte CLint is a measure of how fast metabolising enzymes remove a compound, apart from limits set by blood flow.

The structures appear in SMILES notation.

As to `CCCCCCCCCCCCCCCCSCCCOP(=O)(O)CO[C@H](C)Cn1cnc2c(N)ncnc21.N` [2a], in series [1], the half-life at 3 μM was over 2 h and the amount remaining at 2 h, 3 μM was over 95%. In “Mouse plasma stability”, the “mouse plasma t1/2” value is over 4 h and the half-life at 3 μM is over 4 h. For the same compound, in “Mouse plasma stability” (setting [3]), the fraction remaining at 4 h, 3 μM was 95% and the “mouse plasma % remaining” value was over 95%. In series [2], the intrinsic clearance (hepatocyte CLint) at 20 μM was 14.1 µL/min/1e6 cells and the half-life at 20 μM came to 1.49 ± 0.00667 h.

In series [1], `C[C@H](Cn1cnc2c(N)ncnc21)OCP(=O)(O)OCCCSCCCCCCCCCCCCc1ccc(F)cc1.N` [16g] registered a half-life at 3 μM of over 2 h and an amount remaining at 2 h, 3 μM of 88%. For the same compound, in the series “Mouse plasma stability”, the “mouse plasma t1/2” value is over 4 h and the half-life at 3 μM is over 4 h. For the same compound, the amount remaining at 4 h, 3 μM in the series “Mouse plasma stability” (setting [3]) was over 95%. For the same compound, in series [2], the intrinsic clearance (hepatocyte CLint) at 20 μM is 27 µL/min/1e6 cells and the half-life at 20 μM was determined as 0.783 h.

In series [1], `C[C@H](Cn1cnc2c(N)ncnc21)OCP(=O)(O)OCCCSCCCCCCCCCCCCC1CCCCC1.N` [16h] returned a half-life at 3 μM of over 2 h and a fraction remaining at 2 h, 3 μM of over 95%. Besides, in the series “Mouse plasma stability”, the “mouse plasma t1/2” value was over 4 h and the half-life at 3 μM is over 4 h. Further, the amount remaining at 4 h, 3 μM in the series “Mouse plasma stability” (setting [3]) is 71%. Besides, in series [2], the hepatocyte CLint at 20 μM is 18 to 19 µL/min/1e6 cells and the half-life at 20 μM lay within 1.12 to 1.18 h.

The values are drawn from paper PMC11513920, “Building Metabolically Stable and Potent Anti-HIV Thioether-Lipid Analogues of Tenofovir Exalidex: A thorough Pharmacological Analysis” (Journal of Medicinal Chemistry, 2024).
